# Measurements published in paper PMC5908134, “Saccharomyces cerevisiae as a platform for assessing sphingolipid lipid kinase inhibitors” (PLoS ONE, 2018).
# “Also recorded” adds a separate entry of the source.
# Assays:
# recombinant human SphK1 = molecular target: recombinant human SphK1; parameters: method as in PMID 21216217; details: determined previously; cited from earlier work
# human SphK1 [1] = molecular target: T1, human SphK1 (Homo sapiens, UniProt Q9NYA1); experiment: yeast growth rescue assay, strain CBY169 expressing human SphK1; type: cell-based; details: for rescue of growth in galactose media: strain CBY169 expressing human SphK1
# T1 construct: constructed by sub-cloning DNA encoding the indicated translational open reading frames into the pYES2-FLAG-URA expression vector; expressed in transfected cells; host or cells: Saccharomyces cerevisiae CBY169 or KYA1, plasmid pGAL-HsSPHK1
# From the text: (§1) The plasmids pGAL-HsSPHK1, pGAL-HsSPHK2, pGAL-MmSphk1, pGAL-MmSphk1L277M, pGAL-MmSphk2, pGAL-HsCERK and pGAL-SK2_MOD used in this study were constructed by sub-cloning DNA encoding the indicated translational open reading frames into the pYES2-FLAG-URA expression vector (provided by Dr. Cungui Mao). […] Excepting human and mouse SphK2, the DNA sequences are synthetic (from GeneWiz LLC (South Plainfield, NJ)) and were optimized for expression in S. cerevisiae.
# (§2) Yeast harboring plasmids were selected and maintained on synthetic complete media lacking uracil (SC-URA) with 2% glucose as the fermentable carbon source. After overnight growth at 30°C in this media, the cultures were diluted 1:100 into SC-URA media supplemented with 2% galactose and various concentrations of test inhibitor. After a further 24–48 hours incubation at 30°C, the extent of growth was assessed by measuring absorbance at 600 nm. […] Tubes were incubated in a rotating drum while plates were agitated using a plate mixer. A600 for 96-well plate cultures was determined using a Molecular Devices SpectraMax M5 plate reader. Test compounds were dissolved in DMSO at 40–50 mM and diluted into water containing 0.1% fatty acid free bovine serum albumin. In all cases, the DMSO concentration in the assay was less than 2% (v/v).
# human CerK = molecular target: T2, human CerK (Homo sapiens, UniProt Q8TCT0); experiment: yeast growth rescue assay, strain JS1256 (WT) expressing human CerK; type: cell-based; details: galactose media
# T2 construct: constructed by sub-cloning DNA encoding the indicated translational open reading frames into the pYES2-FLAG-URA expression vector; expressed in transfected cells; host or cells: Saccharomyces cerevisiae JS1256, plasmid pGAL-HsCERK
# T2 sequence (Q8TCT0 1-537): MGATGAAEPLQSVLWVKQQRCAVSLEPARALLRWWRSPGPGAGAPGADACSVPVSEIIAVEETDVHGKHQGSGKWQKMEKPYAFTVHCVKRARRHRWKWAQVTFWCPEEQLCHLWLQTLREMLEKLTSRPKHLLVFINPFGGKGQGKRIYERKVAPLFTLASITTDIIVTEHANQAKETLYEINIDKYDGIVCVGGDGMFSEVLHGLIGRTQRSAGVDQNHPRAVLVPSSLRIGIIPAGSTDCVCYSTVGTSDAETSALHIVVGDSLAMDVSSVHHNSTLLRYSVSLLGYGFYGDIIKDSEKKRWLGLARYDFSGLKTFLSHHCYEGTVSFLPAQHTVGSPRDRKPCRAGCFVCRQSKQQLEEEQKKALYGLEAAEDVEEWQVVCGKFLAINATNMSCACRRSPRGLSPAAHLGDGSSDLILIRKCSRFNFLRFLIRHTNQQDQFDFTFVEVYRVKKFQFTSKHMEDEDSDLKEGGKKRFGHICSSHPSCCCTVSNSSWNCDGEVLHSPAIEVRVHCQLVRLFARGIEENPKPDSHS
# From the text: (§3) The yeast strains used in this study include JS1256 (MATa his3Δ1 leu2Δ0 met15Δ0 ura3Δ0) and CBY169 (MATα leu2-3,112 ura3-52 his4 trp1 rme1 dpl1Δ::TRP1 lcb3Δ::LEU2 lcb4Δ::kanMX lcb5Δ::kanMX) (the latter provided by Kyle Cunningham). The CBY169 strain was modified further by replacement of the PDR5 gene with a selectable marker (confers resistance to clonat) to generate strain KYA1 (MATα leu2-3,112 ura3-52 his4 trp1 rme1 dpl1Δ::TRP1 lcb3Δ::LEU2 lcb4Δ::kanMX lcb5Δ::kanMX pdr5Δ::natMX).
# (§4) The plasmids pGAL-HsSPHK1, pGAL-HsSPHK2, pGAL-MmSphk1, pGAL-MmSphk1L277M, pGAL-MmSphk2, pGAL-HsCERK and pGAL-SK2_MOD used in this study were constructed by sub-cloning DNA encoding the indicated translational open reading frames into the pYES2-FLAG-URA expression vector (provided by Dr. Cungui Mao). The encoded proteins all have an amino terminal FLAG epitope tag ([…]) and their expression is under the control of the GAL1,10 promoter. Excepting human and mouse SphK2, the DNA sequences are synthetic (from GeneWiz LLC (South Plainfield, NJ)) and were optimized for expression in S. cerevisiae.
# yeast strain CBY169 = experiment: toxicity for yeast (growth of strains without lipid kinase expression); details: yeast strain CBY169
# Experimental: as §2
# The salient limitations of the yeast assay are those of any cell-based assay. Namely, the assay reports EC50 values rather than Km, Vmax or kcat values of inhibitors, test compounds must not be markedly cytotoxic at the concentrations tested and compounds must accumulate to some extent in the yeast. Cytotoxicity is readily discerned by testing compounds for an effect on growth of strains without lipid kinase expression.
# sphingosine kinase = molecular target: sphingosine kinase; parameters: method as in PMID 21216217; details: cited from earlier work
# human SphK2 [2] = molecular target: T3, human SphK2 (Homo sapiens, UniProt Q9NRA0); experiment: yeast growth rescue assay, strain KYA1 (PDR5 deleted) expressing human SphK2; type: cell-based
# T3 construct: full length (wild type hSK2); expressed in transfected cells; host or cells: Saccharomyces cerevisiae CBY169 or KYA1, plasmid pGAL-HsSPHK2
# T3 sequence (Q9NRA0 1-618 isoform Q9NRA0-2): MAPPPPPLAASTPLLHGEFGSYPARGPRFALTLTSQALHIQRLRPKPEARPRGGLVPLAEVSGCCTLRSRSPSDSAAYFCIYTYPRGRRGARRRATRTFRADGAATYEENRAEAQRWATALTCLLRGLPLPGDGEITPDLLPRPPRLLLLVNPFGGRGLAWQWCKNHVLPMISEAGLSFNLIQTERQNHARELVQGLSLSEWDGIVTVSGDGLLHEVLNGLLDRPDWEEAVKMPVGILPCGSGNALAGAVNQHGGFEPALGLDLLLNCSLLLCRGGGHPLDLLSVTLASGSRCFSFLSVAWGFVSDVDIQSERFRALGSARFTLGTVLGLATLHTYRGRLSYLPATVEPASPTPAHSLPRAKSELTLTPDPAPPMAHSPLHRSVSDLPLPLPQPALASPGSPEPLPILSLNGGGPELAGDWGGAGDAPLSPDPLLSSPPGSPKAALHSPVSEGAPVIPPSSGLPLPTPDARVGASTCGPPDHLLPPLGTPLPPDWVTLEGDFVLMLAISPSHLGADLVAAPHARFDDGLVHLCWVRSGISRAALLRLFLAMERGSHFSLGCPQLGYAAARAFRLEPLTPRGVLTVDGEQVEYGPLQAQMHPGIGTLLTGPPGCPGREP
# From the text: as §3, §4
# human SphK1 [3] = molecular target: T1, human SphK1; experiment: yeast growth rescue assay, strain KYA1 (PDR5 deleted) expressing human SphK1; type: cell-based
# From the text: as §1, §2
# human SphK2 [4] = molecular target: T3, human SphK2; experiment: yeast growth rescue assay, strain CBY169 expressing human SphK2; type: cell-based
# From the text: as §1
# mouse SphK1 L277M = molecular target: T4, mouse SphK1 L277M (Mus musculus, UniProt Q8CI15, L271M); experiment: yeast growth rescue assay, mouse SphK1 L277M mutant versus wild type mouse SphK1; type: cell-based
# T4 construct: constructed by sub-cloning DNA encoding the indicated translational open reading frames into the pYES2-FLAG-URA expression vector; expressed in transfected cells; host or cells: Saccharomyces cerevisiae (CBY169, printed 'CYA169', and KYA1), plasmid pGAL-MmSphk1L277M
# From the text: as §1
# [5] = test system: human and rat SphK1 and SphK2; parameters: method as in PMID 26243740; details: cited from earlier work
# human SphK2 [6] = molecular target: T3, human SphK2; experiment: LCMS of phospho-LCBs in yeast expressing human SphK2; type: cell-based; details: yeast with pGAL-HsSPHK2, galactose media, 6 hours, inhibitor 300 nM
# Experimental: Cell pellets (approximately 5 million cells) were mixed with 2 mL of a 3:1 methanol/chloroform mixture and transferred to a capped glass vial. To this suspension was added 10 μL of internal standard solution containing 1 μM d7S1P (deuterated sphingosine 1-phosphate) (Avanti Polar Lipids). The mixture was homogenized in a bath sonicator for 10 min and incubated at 48°C for 16 h. The mixture was then cooled to room temperature and mixed with 200 μL of 1 M KOH in methanol. The samples were again sonicated and incubated at 37°C for 2 h. After this time, the samples were neutralized through the addition of 20 μL of glacial acetic acid and transferred to 2 mL microcentrifuge tubes. […] Immediately before LCMS analysis, the material was dissolved in 300 μL of methanol, clarified by centrifuged at 12,000 x g for 12 min at 4°C, and analyzed by LCMS.
# Analyses were performed using a triple quadrupole mass spectrometer (Sciex 4000 Q-Trap) coupled to a Shimadzu LC-20AD liquid chromatography system. […] Sphingolipids were detected using MRM (multiple reaction monitoring) methods as follows: d7S1P (387.4→271.3); dhS1P (382.4→266.4); dhSph (dihydroSphingosine) (302.5→60.0); phytoS1P (398.3→300.4) and phytosSph (318.4→282.3).
# Yeast were cultured for 6 hours in the indicated media; inhibitors were present at 300 nM. Sphingolipids in cell pellets were analyzed by LCMS (see Methods for details).
# [7] = molecular target: T5, human SphK2 deletion mutant 11–1 (12–137 & 371–436 deleted) (Homo sapiens, UniProt Q9NRA0, D462G/DEL396-461/E171D/G163S/G648A); experiment: yeast growth rescue, CBY169, human SphK2 deletion mutant 11–1; type: cell-based; details: mutant 11–1 (191 aa deleted)
# T5 construct: a set of mutants lacking portions of the non-SphK1 overlapping amino acids of human SphK2; expressed in transfected cells; host or cells: Saccharomyces cerevisiae CBY169
# T5 sequence (Q9NRA0 with tags, fused parts or gaps isoform Q9NRA0-2 G127S/E135D/DEL360-425/D426G/G612A): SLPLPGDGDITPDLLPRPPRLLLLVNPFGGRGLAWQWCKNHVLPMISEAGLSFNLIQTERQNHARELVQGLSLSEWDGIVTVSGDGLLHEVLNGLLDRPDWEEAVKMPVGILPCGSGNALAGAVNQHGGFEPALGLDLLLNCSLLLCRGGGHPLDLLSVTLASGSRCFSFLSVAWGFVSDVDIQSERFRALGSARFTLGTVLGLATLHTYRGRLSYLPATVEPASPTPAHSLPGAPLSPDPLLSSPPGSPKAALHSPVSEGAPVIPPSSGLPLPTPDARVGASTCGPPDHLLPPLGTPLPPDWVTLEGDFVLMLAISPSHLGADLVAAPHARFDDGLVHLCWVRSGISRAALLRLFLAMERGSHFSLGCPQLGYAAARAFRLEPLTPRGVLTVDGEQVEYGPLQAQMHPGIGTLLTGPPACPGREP
# From the text: While some of the nucleotide changes were translationally silent, the altered human SphK2 (termed ‘SK2_MOD’) DNA encoded five amino acid changes (Glu71Asp, Gly138Ser, Glu146Asp, Glu437Gly, Gly623Ala).
# T1 sequence (Q9NYA1 whole entry): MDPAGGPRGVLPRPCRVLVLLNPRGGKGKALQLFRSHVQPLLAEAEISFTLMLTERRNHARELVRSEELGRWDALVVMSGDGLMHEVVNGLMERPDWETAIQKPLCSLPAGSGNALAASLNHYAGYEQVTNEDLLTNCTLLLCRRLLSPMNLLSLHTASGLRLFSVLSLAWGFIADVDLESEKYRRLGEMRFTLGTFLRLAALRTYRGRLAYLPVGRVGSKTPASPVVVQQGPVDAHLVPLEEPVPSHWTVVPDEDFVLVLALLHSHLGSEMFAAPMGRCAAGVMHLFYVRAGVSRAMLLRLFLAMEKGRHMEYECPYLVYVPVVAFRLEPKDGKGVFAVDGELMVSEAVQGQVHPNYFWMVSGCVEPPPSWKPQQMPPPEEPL
# T4 sequence (Q8CI15 1-388 isoform Q8CI15-2 L277M): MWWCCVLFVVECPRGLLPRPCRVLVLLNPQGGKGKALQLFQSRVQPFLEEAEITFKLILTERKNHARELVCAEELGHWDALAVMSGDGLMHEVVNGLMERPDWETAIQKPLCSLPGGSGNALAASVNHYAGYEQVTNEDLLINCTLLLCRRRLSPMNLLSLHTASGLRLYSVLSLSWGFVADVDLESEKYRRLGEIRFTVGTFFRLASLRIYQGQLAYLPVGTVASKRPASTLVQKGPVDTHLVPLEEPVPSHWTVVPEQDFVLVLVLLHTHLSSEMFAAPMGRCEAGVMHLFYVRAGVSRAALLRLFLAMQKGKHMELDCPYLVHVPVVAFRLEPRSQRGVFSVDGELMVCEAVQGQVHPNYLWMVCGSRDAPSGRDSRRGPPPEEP
structure (smiles),measurement,setting,value
CCCCCCCc1ccc(NC(=O)[C@@H](N)CCO)cc1 [9ab],Ki,recombinant human SphK1,1.4 to 1.7 µM
same,EC50,human SphK1 [1],0.9 µM
O=C(Nc1nc2ccc(NC(=O)C34CC5CC(CC(C5)C3)C4)cc2s1)c1ccccc1 [NVP-231],rescue of growth,human CerK,growth was restored in a dose dependent fashion
Oc1ccc(Nc2nc(-c3ccc(Cl)cc3)cs2)cc1 [SKI-II],concentrations at which toxic for yeast,yeast strain CBY169,above 3 μM
same,Ki,sphingosine kinase,12 to 30 µM
same,rescue of growth,human SphK2 [2]; strain KYA1 expressing human SphK2,failed to rescue growth
same,rescue of growth,human SphK1 [3],failed to rescue growth
same,rescue of growth in galactose media,human SphK1 [1],failed to rescue growth
same,rescue of growth,human SphK2 [4],failed to rescue growth
CCCCCOc1ccc2cc(-c3noc([C@@H]4[C@@H](O)CCN4C(=N)N)n3)ccc2c1 [SLC5111312],concentrations at which toxic for yeast,yeast strain CBY169,2000 to 3000 nM
same,EC50 values for mutant mouse enzyme versus human enzyme,"mouse SphK1 L277M; mouse SphK1 L277M versus human SphK1, yeast growth rescue",similar
same,potency at mutant (L277M) versus wild type mouse SphK1,mouse SphK1 L277M; yeast growth rescue,distinctly more potent
same,rescue of growth in galactose media,human SphK1 [1],restored full growth
same,potency at SphK1 versus SphK2,[5],equipotent
same,rescue of growth,human SphK2 [4],rescued growth
CCCCCCCCOc1ccc(-c2noc([C@@H]3CCCN3C(=N)N)n2)cc1C(F)(F)F [SLM6031434],phospho-LCB levels,human SphK2 [6],decreased
same,concentrations at which toxic for yeast,yeast strain CBY169,2000 to 3000 nM
same,loss of potency,[7],~3 fold
same,potency in CBY169 vs. KYA1 strains (PDR5p status),human SphK2 [2]; presence (CBY169) or absence (KYA1) of PDR5,the same; also recorded: not different
same,rescue of growth,human SphK2 [4],rescued growth
